Assays:
Format in all cases: cell-based, human
HEK 293FT cells = assay: Flow enabled tracking of connexosomes in HEK 293FT cells (FETCH); conditions: for homotypic FETCH score (docking): homotypic pairing of fluorescent C-terminal fusion constructs, Q2/(Q1+Q2+Q3); for heterotypic FETCH score when paired with Cx43: co-plated with cells expressing Cx43
Description: FETCH analysis is fundamentally a two-component system. To complete FETCH analysis, replica multi-well plates were transfected with either of the two components being evaluated. The media of transfected wells was changed 16-18 hrs post-transfection and cells were trypsinized and experimental counterparts were combined at ˜20 hrs post-transfection. The entirety of combined samples were then plated onto new, 10 μg/mL Fibronectin coated wells of the same size, resulting in hyperdensity and over confluency. Following co-plating, samples were incubated for ˜20 hr-24 hrs, at which point samples were trypsinized, resuspended in phosphate buffered saline with 10 U/mL DNAse and fixed with paraformaldehyde (f/c of 1.5%). Co-plated samples in 96 well plates were resuspended to a final volume of ˜150 μL, samples from 24-well plates were resuspended to a final volume of ˜600 μL.
Flow cytometry data was collected on either a BD FACSCanto II (2-color experiments and high-throughput 96-well plates; 488 nm and 633 nm lasers), which utilizes the BD FACSDiVa software. Samples were analyzed in two selection gates prior to their fluorescence evaluation. First, presumable HEK cells were identified by evaluating sample forward vs side scatter area. Next, single cells were selected by evaluating cells that maintained a linear correlation of forward scatter height to forward scatter area. Finally, the fluorescence profiles of each sample were generated.
Each FETCH experiment produces “*.fcs” files that contain all the channel data for fluorescence in the sample. The automated pipeline loads these files, extracts FSC-A, SSC-A, and FSC-H. Depending on the machine used, green channel was loaded as 1-A or as FITC-A. For the red channel, both APC-A (RFP670) with PE-A (mApple) can be used or 5-A(RFP670) can be used. Next, the code produces two matrices containing SSC-A with FSC-A, and FSC-A with FSC-H, respectively.
The first gate is drawn on the FSC-A vs SSC-A axes to exclude cellular debris which clusters in the lower left corner and the cells that are saturating the laser (at the max of both axes). On an FSC-A vs SSC-A plot, the cellular debris usually is smoothly transitioning into the population of intact cells, therefore a Gaussian kernel density estimator with the estimator bandwidth selection defined by the Scott's Rule is used to draw contours around the data in SSC-A vs FSC-A matrix. Next, a set of heuristics was used to determine which of the contour lines should be used to define the first gate. Specifically, cellular debris usually clusters below 25000 on both axes, so any contour that includes values at or below is excluded. Similarly, any contour within a 1000 of the maximum value of each axis is also excluded. Of the remaining contours, the largest one is chosen, and an oval equation is fitted to the points defining that contour to attenuate occasional protrusions of the contour that tap into cellular debris population in rare cases. The fitted oval becomes the first gate.
For all the elements inside of the first gate, a second gate was drawn in the axis of FSC-A and FSC-H to exclude non-single cells. For the second gate, a line was fit to all the points. Next, for each point, a norm to the fit line was found and a standard deviation of all such norms was found. Using this standard deviation, a second gate 4 standard deviations away from the fitted line was defined on both sides and excluded all the points outside of this gate.
Upon applying the first two gates, the data was finally plotted with the red fluorophore on the y axis and the green fluorophore on the x axis. If a sample contained more than two fluorophores, then the last gate was drawn for each possible combination. Since some readings are below zero due to fluorescence compensation, all the data points were shifted by the smallest value along both axes and then a natural log of fluorescence levels was taken. […]

293 cells = assay: FETCH in 293 cell line; conditions: compared with HEK 293FT
Description: (§1) For FETCH to be successful, cells must overexpress Cx-FP constructs to a sufficient degree to promote observable fluorescence exchange.

HeLa cells = assay: FETCH in HeLa cell line; conditions: compared with HEK 293FT
Description: as §1

| Substance | homotypic FETCH score (docking) (HEK 293FT cells) | other results |
| --- | --- | --- |
| Cx31.1: human connexin 31.1 (GJB5), C-terminal fluorescent fusion protein | failed to generate a significant homotypic FETCH score | – |
| Cx31.3: human connexin 31.3, C-terminal fluorescent fusion protein | failed to generate a significant homotypic FETCH score | – |
| Cx31.9: human connexin 31.9 (GJD3), C-terminal fluorescent fusion protein | failed to generate a significant homotypic FETCH score | – |
| Cx32: human connexin 32 (GJB1), C-terminal fluorescent fusion protein | significantly positive | heterotypic FETCH score when paired with Cx43 (HEK 293FT cells): failed to dock |
| Cx36: human connexin 36 (GJD2), C-terminal fluorescent fusion protein | significantly positive | heterotypic FETCH score when paired with Cx43 (HEK 293FT cells): failed to dock |
| Cx43-ELs-Cx26: chimeric construct of the intracellular and transmembrane regions of Cx43 and the ELs of Cx26 | – | FETCH docking when paired with Cx26 (HEK 293FT cells; co-plated with cells expressing Cx26): preferentially docked; heterotypic FETCH score when paired with Cx43 (HEK 293FT cells): not Cx43 |
| Cx43: human connexin 43 (GJA1), expressed as C-terminal fluorescent fusion protein | significantly positive | FETCH score (293 cells): substantially lower; FETCH score (HeLa cells): substantially lower |
| Cx45: human connexin 45 (GJC1), C-terminal fluorescent fusion protein | significantly positive | heterotypic FETCH score when paired with Cx43 (HEK 293FT cells): positive |
| Cx46: human connexin 46 (GJA3), C-terminal fluorescent fusion protein | failed to generate a significant homotypic FETCH score | – |
| Cx50: human connexin 50 (GJA8), C-terminal fluorescent fusion protein | failed to generate a significant homotypic FETCH score | – |
| Cx59: human connexin 59 (GJA9), C-terminal fluorescent fusion protein | failed to generate a significant homotypic FETCH score | – |
| Cx62: human connexin 62 (GJA10), C-terminal fluorescent fusion protein | failed to generate a significant homotypic FETCH score | – |
| D190A: random alanine scanning mutation of the Cx43 extracellular loops | retained their ability to homotypically dock | – |
| S182A: random alanine scanning mutation of the Cx43 extracellular loops | retained their ability to homotypically dock | – |

Source: patent US20240248078A1, “Compositions For and Methods of Evaluating Gap Junction Formation and Function” (Duke University, priority 2021, published 2024)
